The values that follow are results of earlier work, collected in patent publication US8247391B2, “Gel compositions” (De Montfort University, priority 2001, dated 2012).

≈ marks a conversion by molar mass, not a printed value.

The conditions of this data set: room temperature, pH 7.3 buffer (with antioxidants).
For the compound `CC1=C(/C=C/C(C)=C/C=C/C(C)=C/C=O)C(C)(C)CCC1` [retinal, retinaldehyde], the water solubility was 0.11 µM (≈ 0.0313 µg/mL).

For `CC1=C(/C=C/C(C)=C/C=C/C(C)=C/C(=O)O)C(C)(C)CCC1` [retinoic acid], the water solubility is 0.21 µM (≈ 0.0631 µg/mL).

For the compound `CC1=C(/C=C/C(C)=C/C=C/C(C)=C/CO)C(C)(C)CCC1` [retinol, Retinol], the water solubility was 0.06 µM (≈ 0.0172 µg/mL).
